Data set [1] relates to M. tuberculosis. Kind of data set: microbe, parasite or virus in culture. Format: cell-based. As to conditions: Mycobacterium tuberculosis, 120 h; read-out: QUM (MIC80).
Data set [2] concerns M. tuberculosis H37Rv. Kind of data set: In vivo activity in a murine model of acute tuberculosis infection (lung CFU). As to conditions: 50 mg/kg orally once daily, 3 days of treatment starting at day 6, female BalbC mice. On the procedure:
The effect of compounds 171 and 175 on the bacterial load of TB-infected mice was compared to that of the reference compound Isoniazid (INH). 8-week old female BalbC mice were infected with 8×10^6 M. tuberculosis H37Rv via intranasal inoculation. Mice were sacrificed at day 1 to control the number of CFU in the lungs. In the acute model of infection, mice were treated for 3 days, starting at day 6. Compounds were freshly dissolved in a 20% d-α-tocopheryl polyethylene glycol 1000 succinate (ETPGS) solution and administered by oral gavage as single dose per day. Bacterial load was assessed in lungs after homogenizing the organs in 1×PBS. Serial dilutions of organs homogenates were spread on Middlebrook 7H11 plates and CFU were determined after 3 weeks incubation at 37° C. under 5% CO2.

Broadly, the melting point is the temperature of the solid-liquid transition.

Converted amounts (≈) assume the structure as drawn.

For `CCc1nc2cc(C)ccn2c1C(=O)NCc1ccc(N2CCC(c3ccc(OC(F)(F)F)cc3)CC2)cc1` [Compound 171], in data set [1], the MIC80 was under 1 µM. For the same compound, the “CFU in the lungs compared to untreated mice” value in data set [2] is “reduction of CFU compared to untreated mice”.
The corresponding values for `CCc1nc2cc(F)ccn2c1C(=O)NCc1ccc(N2CCC(c3ccc(OC(F)(F)F)cc3)CC2)cc1` [Compound 175] are under 1 µM and “reduction of CFU compared to untreated mice”.
Take `CCc1nc2cc(Cl)ccn2c1C(=O)NCc1nc2ccc(-c3ccc(OC(F)(F)F)cc3)cc2o1` [Compound 269]: the melting point was over 220 °C. Further, the MIC80 in data set [1] is under 1 µM.
The corresponding values for `CCc1nc2cc(Cl)ccn2c1C(=O)NCc1ccc(N2CC(Cc3ccc(F)cc3)OC2=O)cc1` (stereo not shown) [Compound 270] are > 96.9 °C (dec.) and under 1 µM.
The corresponding values for `CCc1nc2cc(Cl)ccn2c1C(=O)NCc1ccc(N2CC(COc3ccc(F)cc3)OC2=O)cc1` (stereo not shown) [Compound 271] are over 97.1 °C and 1 to 20 µM (≈ 0.523 to 10.5 µg/mL).
Consider `CCc1nc2ccc(Cl)cn2c1C(=O)NCc1ccc(CN2CCOC2=O)cc1` [Compound 282], for which the melting point was determined as 179 °C. The MIC80 in data set [1] lay in the range of 1 to 20 µM (≈ 0.413 to 8.26 µg/mL).
The corresponding values for `CCc1nc2cc(Cl)ccn2c1C(=O)NCc1ccc(CN2CCOC2=O)cc1` [Compound 283] are 172 °C and 1 to 20 µM (≈ 0.413 to 8.26 µg/mL).
For `CCc1nc2ccc(Cl)cn2c1C(=O)NCc1ccc(CN2CCOCC2)cc1` [Compound 284], in that order: 133 °C and under 1 µM.
For `CCc1nc2cc(Cl)ccn2c1C(=O)NCc1ccc(CN2CCOCC2)cc1` [Compound 285], in that order: 107 °C and under 1 µM.
For `CCc1nc2ccc(Cl)cn2c1C(=O)NCc1ccc(N(C)c2ccc(OC(F)(F)F)cc2)cc1` [Compound 286], the melting point was 138 °C. Further, the MIC80 in data set [1] was under 1 µM.
On to `CCc1nc2cc(Cl)ccn2c1C(=O)NCc1ccc(N(C)c2ccc(OC(F)(F)F)cc2)cc1` [Compound 287], for which the melting point amounted to 134 °C. For the same compound, the MIC80 in data set [1] is under 1 µM.
For `CCc1nc2ccccn2c1C(=O)NCc1ccc(N(C)c2ccc(OC(F)(F)F)cc2)cc1` [Compound 288], in that order: 120 °C and under 1 µM.
`COc1ccc2nc(C)c(C(=O)NCc3ccc(N4CCC(c5ccc(F)cc5)CC4)cc3)n2c1` [Compound 289] gave a melting point of 192 °C. Moreover, the MIC80 in data set [1] is under 1 µM.
`COc1ccc2nc(C)c(C(=O)NCc3ccc(N4CCC(c5ccc(C)cc5)CC4)cc3)n2c1` [Compound 290] yielded a melting point of 178 °C. Besides, the MIC80 in data set [1] was under 1 µM.
Consider `COc1ccc2nc(C)c(C(=O)NCc3ccc(N4CCC(c5ccc(C(F)(F)F)cc5)CC4)cc3)n2c1` [Compound 291], for which the melting point was 207 °C. In addition, the MIC80 in data set [1] is under 1 µM.
The compound `COc1ccc2nc(C)c(C(=O)NCc3ccc(N4CCC(c5ccc(OC(F)(F)F)cc5)CC4)cc3)n2c1` [Compound 292] showed a melting point of 183 °C. Besides, the MIC80 in data set [1] was under 1 µM.
For `Cc1ccc2nc(C)c(C(=O)NCc3ccc(N4CCC(c5ccc(F)cc5)CC4)cc3)n2c1` [Compound 293], in that order: 181 °C and under 1 µM.
The corresponding values for `Cc1ccc2nc(C)c(C(=O)NCc3ccc(N4CCC(c5ccc(Cl)cc5)CC4)cc3)n2c1` [Compound 294] are 188 °C and under 1 µM.
The corresponding values for `COc1ccc(C2CCN(c3ccc(CNC(=O)c4c(C)nc5ccc(C)cn45)cc3)CC2)cc1` [Compound 295] are 184 °C and under 1 µM.
`Cc1ccc2nc(C)c(C(=O)NCc3ccc(N4CCC(c5ccc(OC(F)(F)F)cc5)CC4)cc3)n2c1` [Compound 296] had a melting point of 184 °C. Further, the MIC80 in data set [1] is under 1 µM.

(Values after US20160185774A1, “Anti-Infective Compounds” (priority 2013, published 2016).)
